Data set [1] concerns endometrial cancer. The note with it: cited from earlier work.
A short description of data set [2]: Safety and dose-limiting toxicity in Phase 1b dose-finding study (INCMGA 0012-102). The settings on record: epacadostat 900 mg BID with ANTIBODY X 500 mg Q4W. Type of data set: in vivo. The text has this: The study is an open-label, nonrandomized, multicenter, Phase 1b study with independent treatment groups.
For dose escalation, a Bayesian optimal interval (BOIN) design with a cohort size of approximately 3 evaluable participants is used. The target rate of dose-limiting toxicities (DLTs) is assumed to be 30% for each combination. At each dose level, a maximum of 9 participants are enrolled.
Participants in the dose-escalation cohorts are observed for 28 days for occurrence of DLTs.
The MTD is defined as the highest dose at which less than approximately one-third of the participants have a DLT. Dose-limiting toxicities occurring during the first 28 days of treatment guide dose escalation and determination of the MTD and RP2D. In addition, participants with late-onset safety events meeting the definition of DLT or those who had intolerable, lower grade persistent toxicity determined to be attributable to either study drug (e.g., Grade 2 peripheral neuropathy) are considered in the selection of each combination RP2D. […]
A DLT is defined as the occurrence of any of the toxicities listed in Table 4 that are possibly, probably, or definitely due to study treatment occurring from the start of treatment up to and including Day 28. All DLTs will be assessed by the investigator using Common Terminology Criteria for Adverse Events: Version 5 (CTCAE v5) criteria. […]

Data set [3] relates to plasma kynurenine levels (IDO1 inhibition).
Method: Clinical laboratory tests are performed, including measurement of kynurenine levels in blood plasma and tumor samples.
Plasma kynurenine levels were measured by an LC-MS/MS method at World Wide Clinical Trials, Inc. Patient samples were obtained pre-dose and at defined times following treatment.
Plasma kynurenine was measured pre-treatment (C1D1) and at the indicated visits.
[4] abbreviates: MSI-H or MMR deficient endometrial cancer progressed on prior therapy.
The mark [5] stands for this setting: first line therapy in advanced endometrial cancer.

“Also recorded” adds a separate entry of the source. Read-outs that look alike come from different tables or passages of the source.

On to `CC(=O)O[C@H]1C(=O)[C@@]2(C)[C@H]([C@H](OC(=O)c3ccccc3)[C@]3(O)C[C@H](OC(=O)[C@H](O)[C@@H](NC(=O)c4ccccc4)c4ccccc4)C(C)=C1C3(C)C)[C@]1(OC(C)=O)CO[C@@H]1C[C@@H]2O` [Paclitaxel], for which the “RR (response rate)” value in data set [1] (endometrial cancer patients previously treated with combination of cisplatinum and doxorubicin) is 25%.

Take `CC(=O)O[C@@]12CO[C@@H]1C[C@H](O)[C@@]1(C)C(=O)[C@H](O)C3=C(C)[C@@H](OC(=O)[C@H](O)[C@@H](NC(=O)OC(C)(C)C)c4ccccc4)C[C@@](O)([C@@H](OC(=O)c4ccccc4)[C@H]21)C3(C)C` [docetaxel]: the “RR (response rate)” value in data set [1] (endometrial cancer patients treated with paclitaxel in first line therapy) is 8%.

Consider `NS(=O)(=O)NCCNc1nonc1C(=NO)Nc1ccc(F)c(Br)c1` [epacadostat, 4-({2-[(aminosulfonyl)amino]ethyl}amino)-N-(3-bromo-4-fluorophenyl)-N′-hydroxy-1,2,5-oxadiazole-3-carboximidamide], for which, in data set [2], the “maximum tolerated dose (MTD) assessment” value is listed as “exceeded the MTD”. For the same molecule, the “reductions in plasma kynurenine levels compared to Group 1” value in data set [3] (600 mg BID epacadostat (Group 2) vs 100 mg BID (Group 1), with ANTIBODY X 500 mg Q4W, day 8 of treatment, solid tumor patients, 3 per group) is listed as “increased reductions in plasma kynurenine levels”. In addition, the “patients showing sustained reductions in plasma kynurenine” value in data set [3] (600 mg BID epacadostat with ANTIBODY X 500 mg Q4W, after 5 weeks of treatment) is listed as 2/3. Moreover, the “decreases in plasma kynurenine over visits (FIG. 1)” value in data set [3] (epacadostat 600 mg BID with ANTIBODY X, pre-treatment (C1D1) vs later visits) is given as “sustained (up to 4 months) decreases in plasma kyn in most patients; also recorded: sustained (up to 4 months) decreases in plasma kynurenine levels in most patients”. The normalization of kynurenine entry in data set [3] (epacadostat 600 mg BID with ANTIBODY X, preliminary observations) is “durable normalization of kynurenine”.

Regarding “Pembrolizumab: another anti-PD-1 antibody”, in data set [1] (setting [4]), the “ORR for EC” value is reported as 36% and the duration of response is listed as 4-17 months.

With carboplatin and paclitaxel, in data set [1] (setting [5]), the ORR entry is on record as “approximately 50%”, the OS is given as 3 years and the PFS is given as 13 months.
